# System: ΔSite1-PK-riboCdA (RNA, riboswitch) GGGAAGACAAACAUGCCGAAUCCGAAAGGUACCGAGGAACCGCUUUUUGGCGCUAAUCUGCUGUGAAGCAGCAGUAGGGAUACCUUCUGUCCCGCGCGCGACAGCUAACUCGGGAGGGCAUAAAGGAAGGAGAUUUGCAGUG
# Assay: smFRET, high-FRET
# Conditions: 50 mM Na+, 0.75 mM Mg2+; 10 mM Tris-HCl pH 8.0, room temperature
smiles,measurement,value
Nc1ncnc2c1ncn2[C@@H]1O[C@@H]2COP(=O)(O)O[C@H]3[C@@H](O)[C@H](n4cnc5c(N)ncnc54)O[C@@H]3COP(=O)(O)O[C@H]2[C@H]1O,EC50,~ 78.9 μM

# Source: publication PMC11963983 (2025)
